{"source": "patent US20130030055A1", "about": "“COMPOSITIONS AND METHODS FOR TREATING HAIR LOSS, HAIR THINNING, AND HAIR COLOR LOSS” (priority 2010, published 2013)", "test_system": "eyelashes", "test": "Open-label study of bimatoprost 0.03% on eyelid lash line: photographic Global Eyelash Assessment (GEA)", "format": "in vivo, human", "method": "To assess the safety, efficacy, and subjective experience of using dermal application of bimatoprost 0.03% for the growth of natural eyelashes and as described herein hair in at least one eyebrow region, a prospective, open-label study of subjects who desired longer, thicker (fuller), and darker natural eyelashes was conducted.\nThis was a prospective, open-label study of subjects who wanted to grow more prominent eyelashes. […] The protocol was in compliance with the Declaration of Helsinki and in accordance with applicable Institutional Review Board regulations approved Aug. 28, 2005. Study subjects gave informed consent prior to initiation of any study-related procedures.\nSubjects were instructed to apply bimatoprost 0.03% to the eyelid lash line once daily for 12 weeks using an applicator (Studio Basics Professional Tools Eye Applicators, Paris Presents Incorporated, Gumee, Ill.) for each upper eyelid each evening and, if necessary, to wipe the areas immediately around the eyelid afterward to remove excess medication. Periodic use of artificial tears was allowed, but only prior to administration of bimatoprost 0.03%.\nPhotographic Documentation and Analysis. Frontal-(with eyes open) and side-view photographs were taken of the subjects' eyes at each visit; frontal-view images with eyes closed were taken starting at week 1. The photographic assessment planned as a primary a priori endpoint was a dynamic measure assessing change at each visit from baseline photos. The dynamic scale of global change in increased length, thickness, pigmentation, and number of lashes was +0=no change, +½=little change, +1=mild noticeable change, +2=moderate notable change, and +3=major very notable change. A static photographic assessment was calculated. Photographs from subjects who had frontal eyes-closed images available from weeks 1 and 12 were evaluated in a post hoc analysis and scored independently by 2 raters using a validated Global Eyelash Assessment (GEA) scale, designed to objectively evaluate the quality of a subject's eyelashes. One evaluator was a physician and the other was a health outcomes researcher employed by the study sponsor. In this clinician-graded assessment, overall eyelash prominence was rated on a scale from 1 (minimal) to 4 (very marked). The two independently assessed scores for each photograph (1 from each evaluator) were averaged and the change from week 1 was calculated for each patient.\nStatistical Analyses. A 2-sided paired t-test was used to evaluate the intraocular pressure change from baseline, and the GEA change from week 1 to week 12 was compared using a Wilcoxon signed-rank test. Analysis of intraocular pressure was performed on a per-eye and per-subject basis. A significance level of 0.05 was used for all statistical tests. Categorical variables were summarized with frequency, count, and percentages."}
{"compound": "CCNC(=O)CCC/C=C\\C[C@@H]1[C@@H](/C=C/[C@@H](O)CCc2ccccc2)[C@H](O)C[C@@H]1O", "note": "[bimatoprost]", "values": [{"measurement": "Mean GEA score at week 1", "setting": "17 subjects with week-1 GEA scores of 1 or 2", "result": "1.88±0.33"}, {"measurement": "Mean increase in GEA score at week 12", "setting": "17 subjects with week-1 GEA scores of 1 or 2, P<0.0001", "result": "1.41±0.44"}, {"measurement": "Mean change in GEA score from week 1 to week 12", "setting": "all 19 subjects, P<0.0001", "result": "1.37±0.44"}, {"measurement": "Mean week-1 GEA score", "setting": "all 19 subjects, scale 1 to 4", "result": "2.0±0.47"}, {"measurement": "Subjects rated GEA 2 (moderate)", "setting": "week 1 (15/19)", "result": 79.0, "unit": "%"}, {"measurement": "Subjects rated GEA 3 (marked) or higher", "setting": "week 12 (18/19)", "result": 94.7, "unit": "%"}]}
